Laboratory results reported in patent publication US6368788B1 (priority 1987, dated 2002).
Values joined by “and” are separate entries in the source; they are usually repeats but may differ in a detail not shown here. Identical values can stand only once. Marks after values point to notes of the source that are not given here.

Columns and labels:
influenza = experiment: Influenza prophylaxis: incidence of acute respiratory diseases and influenza illness; type: in vivo, human
Procedure: A group of 452 persons were treated with daily dosages of 100 μg of L-Glu-L-Trp administered im on each of 5-10 consecutive days. A control group consisted of 250 untreated persons. The incidence of diagnosed respiratory diseases and influenza were recorded for both groups over the next four months.

Influenza A = settings: Combined Therapy: Conventional + L-Glu-L-Trp
Procedure: A clinical trial was conducted in a group of 588 patients between the ages of 17-21 years all having a confirmed infection with Influenza A, (i.e., confirmation by either hemagglutination-inhibition or the presence of specific viral antigens).

[1] = Acute osteomyelitis in adolescents (Protocol D); type: in vivo, human
Procedure: In 29 adolescents with osteomyelitis, 2 μg/kg L-Glu-L-Trp was administered im daily on each of 3-7 consecutive days, depending upon the severity of the infection. The control group consisted of 13 children who received conventional therapy with antibiotics.

Plasmodium falciparum = experiment: Relapsing tropical malaria; type: in vivo, human; design: IgG / IgA / IgM: unit not given here
[2] = Chronic primary gastritis and gastro-duodenitis; type: in vivo, human
Excerpt: Twenty two patients (all men aged 18-30 years) suffering from chronic primary gastritis and gastro-duodenitis were entered into the trial. Diagnosis was based on physical examination, and clinical and laboratory investigations including roentgenoscopy and endoscopic examination of the stomach and duodenum. Patient entry criteria was further conditioned on the results of laboratory tests for i) pre-treatment immune indices (i.e., numbers of lymphocytes, T-, and B-lymphocytes, etc.; TABLE 46) and ii) the in vitro sheep red blood cell rosette forming response of T-lymphocytes to L-Glu-L-Trp, (i.e., whether in vitro incubation of patient peripheral blood lymphocytes with L-Glu-L-Trp increased the percentage of E-RFC). […] These twelve patients were entered into the trial.
For determining normal values, the control group consisted of 28 normal healthy volunteers aged 17-23.
Patients received L-Glu-L-Trp im daily at a dosage of 100 μg for 5 days in combination with their conventional ongoing treatment.

neutrophils = experiment: Neutrophil response to proteose peptone and phagocytic activity in CBA mice; type: in vivo; settings: for Phagocytes (%) / Phagocytic Index: induced neutrophils; for Total Number of Cells Induced: neutrophil response to proteose peptone
[3] = DTH sensitivity to tuberculin; type: in vivo, guinea pigs
Procedure: In the second study, affects of L-Glu-L-Trp on DTH sensitivity were investigated in guinea pigs sensitized to tuberculin. L-Glu-L-Trp was administered ip at 10 μg/kg or 1000 μg/kg on the day of an intradermal sensitization with tuberculin antigen.

[4] = test system: peripheral blood leukocytes
Procedure: Twenty-eight patients (15) having the same disease profile and under conventional treatment formed a control group.
The patients presented with the following diagnosed odontogenic infections: 18 with limited purulent infection(s), 7 with focal infection(s), 3 with diffuse infection(s). In addition, 3 patients presented with destructive osteomyelitis and 15 with plegmons mandible.
All 15 children in the conventional treatment group were evaluated before therapy. Post-treatment measurements were performed with peripheral blood samples that were collected from all the conventional and L-Glu-L-Trp treated children. Fifteen healthy normal children were also evaluated to determine the normal mean values in the respective assays (Normal Healthy Control).

[5] = malaria, after L-Glu-L-Trp Therapy (n = 33)
[6] = After L-Glu-L-Trp Combination Therapy
[7] = 10 μg/kg ip on day of tuberculin sensitization
[8] = 1000 μg/kg ip on day of tuberculin sensitization
[9] = children, periapical granulomas, L-Glu-L-Trp Combination, After Therapy

## L-Glu-L-Trp
influenza; L-Glu-L-Trp group
  Average term of hospitalization: 6.2 days
  Incidence of lingering and complicated cases for in-patients, %: 9.8%
  Need for hospitalization, %: 30.6%
  Number of cases of temporary disablement per 100 persons/month: 4.1
  Number of days of temporary disablement per 100 persons/month: 26.5
  Overall incidence of lingering and complicated cases, %: 3.9%
  Pneumonia rate/100 persons/month: 0.20
  Sickness rate per 100 persons/month: 9.8
influenza; in vivo
  Average term of hospitalization, Ratio Control/TX: 1.4
  Cases of temporary disablement, Ratio Control/TX: 1.7
  Days of temporary disablement, Ratio Control/TX: 2.2
  Incidence of lingering and complicated cases for in-patients, Ratio Control/TX: 2.7
  Need for hospitalization, Ratio Control/TX: 1.7
  Overall incidence of lingering and complicated cases, Ratio Control/TX: 3.5
  Pneumonia rate, Ratio Control/TX: 2.5
  Sickness rate, Ratio Control/TX: 3.1
Influenza A
  Increase in T-helper Cells Percentage: 17%
  Length of Required Therapy: 7.1 ± 0.3 days
  Pharyngitis manifestations: 3.6 ± 0.3 days
  Secondary (Pneumonia) Complications: 4.0%
  T-helper/T-suppressor Ratio: 2.7
  Tracheitis manifestations: 3.6 ± 0.3 days
[1]; 1 of 29
  Failure rate (wounds failed to heal): 3%
[1]; in vivo
  T-cell counts: nearly doubled
  Wounds closed with healing earlier than control group: 2 to 3 days
[1]; on the average
  Fevers resolved sooner: 1 to 2 days
Plasmodium falciparum; in vivo
  Clinical outcome: decreased incidence of disease relapses
  FDP and ATIII levels: the levels of FDP decreased and ATIII increased
  PBL and T- and B-lymphocyte counts: increased PBL and T- and B-lymphocyte counts to normal or supra-normal values
Plasmodium falciparum; [5]
  ATIII (%): 98 ± 1.38%
  B-Lymphocytes: 0.53 ± 0.02 ×10^9/L
  B-Lymphocytes % Normal Value: (115%)
  Clotting time (whole blood): 141 ± 2.4^
  FDP: 23 ± 1.8 µg/mL
  Fibrinogen Concentration: 3.4 ± 0.1 g/L
  Hagemann factor dependent fibrinolysis: 25 ± 2.58
  IgA: 138 ± 6.0
  IgA % Normal Value: (140%)
  IgG: 187 ± 1.9
  IgG % Normal Value: (140%)
  IgM: 193 ± 9.0
  IgM % Normal Value: (152%)
  Kaolin clotting time: 58 ± 0.3
  Leukocytes: 9.0 ± 0.14 ×10^9/L
  Leukocytes % Normal Value: (155%)
  Lymphocytes: 2.57 ± 0.09 ×10^9/L
  Lymphocytes % Normal Value: (148%)
  PTT: 23 ± 0.2
  T-Lymphocytes: 0.94 ± 0.06 ×10^9/L
  T-Lymphocytes % Normal Value: (106%)
  Thrombotest: 33 ± 0.5
  Total Fibrinogen: 200 ± 2.7^
[2]; [6]
  B-Lymphocytes: 0.14 ± 0.02 ×10^9/L
  B-Lymphocytes % Normal Value: (97%)
  B-Lymphocytes (%): 7.2 ± 1.5%
  Null Lymphocytes: 0.9 ± 0.05 ×10^9/L
  Null Lymphocytes % Normal Value: (145%)
  Null Lymphocytes (%): 37.3 ± 2.0 %
  T-Lymphocytes: 1.04 ± 0.04 ×10^9/L
  T-Lymphocytes % Normal Value: (96%)
  T-Lymphocytes (%): 55.4 ± 2.1 %
[2]; in vivo
  Clinical outcome: more rapid recovery
neutrophils; 0.01 mg/kg
  Exudate cell concentration: 0.9×10^6
  Neutrophil migration and phagocytic activity: did not appear to stimulate neutrophil migration
neutrophils; 1 mg/kg, six day ip pretreatment
  Increase in percentage of phagocytic cells: 1.5 fold and 1.7 fold
neutrophils; 0.1 mg/kg (so in the source)
  Phagocytes (%): 17.8 ± 1.13%
  Phagocytic Index: 1.90 ± 0.05 No. bacteria/phagocyte
neutrophils; 1 mg/kg
  Phagocytes (%): 31.5 ± 0.4 %
  Phagocytic Index: 1.89 ± 0.03 No. bacteria/phagocyte
neutrophils; ip pretreatment (0.1 mg/kg)
  Number of neutrophils induced by proteose peptone: doubled
neutrophils; 0.01 mg/kg ip pretreatment
  Total Number of Cells Induced: 50 ×10^6
neutrophils; 1 mg/kg ip pretreatment
  Total Number of Cells Induced: 80* ×10^6
neutrophils; treated mice, sterile inflammatory agent
  Neutrophils, Phagocytic Index: ns
[3]; [7]
  Mean Skin Test Diameter ± S.D. Day 10: 14.4 ± 1.3 mm
  Mean Skin Test Diameter ± S.D. Day 20: 15.1 ± 1.4 mm
[3]; [8]
  Mean Skin Test Diameter ± S.D. Day 10: 15.2 ± 1.3 mm
  Mean Skin Test Diameter ± S.D. Day 20: 13.9 ± 1.1 mm
[3]; day 10 or day 20
  DTH response to tuberculin antigen: statistically significant increase in the DTH response
[4]; [9]
  B-Lymphocytes % of Normal Value: (108%)
  B-Lymphocytes: No.: 0.67 ± 0.05 10^9/L
  IgA: 1.09 ± 0.04 g/L
  IgA % Normal Value: (104%)
  IgG: 10.78 ± 0.83 g/L
  IgG % Normal Value: (117%)
  IgM: 0.93 ± 0.07 g/L
  IgM % Normal Value: (95%)
  LMIR Response: % w/PHA: 14.65 ± 3.11 %
  Leukocytes % Normal Value: (97%)
  Leukocytes: No.: 6.60 ± 0.39* 10^9/L
  Lymphocytes % Normal Value: (36%)
  Lymphocytes: No.: 2.37 ± 0.21 10^9/L
  T-Lymphocytes % of Normal Value: (98%)
  T-Lymphocytes: No.: 1.24 ± 0.11* 10^9/L
[4]; following combination therapy
  T-lymphocyte counts, % of normal levels: 98%
